Values of other authors in publication PMC7191262 (Molecular pharmaceutics, 2020).
Read-outs that look alike come from different tables or passages of the source. *1 amine or outer side, *2 acyl side, *3 side chain or, on linkers, in order; H or OH if unused. Where a SMILES comes first, the peptide text is derived from it. Bridges are numbered along the chain shown (N, C = ends). [ ]: non-standard residue; d: D form. The star is where a group is joined. X1 = CN(C)c1ccc2c(c1)Oc1cc(N(C)C)ccc1C2=C1C=CC(=NC(=S)NC[C@](C)(O)C[C@H](N[*:1])C(=O)[*:2])C=C1C(=O)O; Trp(2-yl) = O=C([C@H](Cc1c([*:3])[nH]c2ccccc12)N[*:1])[*:2]; Dolaproine = CO[C@@H]([C@@H]1CCCN1)[C@@H](C)C(=O)O; Dil = CC[C@H](C)[C@H](NC)[C@@H](CC(=O)O)OC; cisHyp = O=C(O)[C@@H]1C[C@H](O)CN1; X2 = C[C@@H](N*)[C@@H](O)c1ccccc1; NMeV = CN[C@H](C(=O)O)C(C)C

Legend:
[1] = cargo previously delivered by pHLIP
[2] = pHLIP with no cargo; ref [33], [36], [39]
[3] = ref Moshnikova et al., 2013 (Ref [17])

Compound: CC[C@H](C)[C@@H]([C@@H](CC(=O)N1CCC[C@H]1[C@H](OC)[C@@H](C)C(=O)N[C@H](C)[C@@H](O)c1ccccc1)OC)N(C)C(=O)[C@@H](NC(=O)[C@@H](NC)C(C)C)C(C)C [Monomethyl Auristatin E] (H-[NMeV]V[Dil][Dolaproine]-X2)
- LogP/LogD ([1]; ref Burns et al., 2015 (Ref [21])): 2.2

Compound: CC[C@H](C)[C@@H]([C@@H](CC(=O)N1CCC[C@H]1[C@H](OC)[C@@H](C)C(=O)N[C@@H](Cc1ccccc1)C(=O)O)OC)N(C)C(=O)[C@@H](NC(=O)[C@@H](NC)C(C)C)C(C)C [Monomethyl Auristatin F] (H-[NMeV]V[Dil][Dolaproine]F-OH)
- LogP/LogD ([1]; ref Burns et al., 2017 (Ref [20])): 0.7

Compound: C[C@@H]1NC(=O)[C@H](C[C@@](C)(O)CNC(=S)N=C2C=CC(=C3c4ccc(N(C)C)cc4Oc4cc(N(C)C)ccc43)C(C(=O)O)=C2)NC(=O)[C@@H]2Cc3c([nH]c4ccccc34)SC[C@H](NC(=O)[C@@H]([C@H](C)O)NC1=O)C(=O)N1C[C@@H](O)C[C@H]1C(=O)N[C@@H](C)C(=O)N2 [Phalloidin-TRITC] (cyclo(A[dT]C[cisHyp]A[Trp(2-yl)][X1]); thioether 3-6)
- LogP/LogD ([1]; ref Reshetnyak et al., 2006 (Ref [24])): −0.05

Compound: Amanitin [Amanitin (Lc-SMPT linker)]
- LogP/LogD [1, 3]: 0.2

Compound: Amanitin [Amanitin (SPDP linker)]
- LogP/LogD [1, 3]: −0.2

Compound: GGEQNPIYWARYADWLFTTPLLLLDLALLVDADEGTC(NPys)G [pHLIP]
- characteristic time for insertion [2]: ~ 40 seconds
